Measurements from US20060069132A1, “Azolecarboxamide herbicides” (priority 2004, published 2006).

What was measured:
[1] = tested on: ducksalad; experiment: Test C flooded paddy test; assay type: in vivo, Heteranthera limosa
[2] = tested on: velvetleaf; experiment: Test B pre-/postemergence herbicide test; assay type: in vivo, Abutilon theophrasti; details: for Velvetleaf plant response rating: postemergence, visual rating, scale 0 (no effect) to 100 (complete control)
How it was run: (§1)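 Evaluation is visual, comparing treated with control plants on a scale where 0 means no effect and 100 means full control. Treatments were preemergence, or postemergence on seedlings 2–18 cm tall, and held 13–15 days in the greenhouse.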

[3] = tested on: morningglory; experiment: Test B pre-/postemergence herbicide test; assay type: in vivo, Ipomoea coccinea; details: for Morningglory plant response rating: postemergence, visual rating, scale 0 (no effect) to 100 (complete control)
How it was run: (§2)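 Flooded paddy rice and barnyardgrass were treated at the 2-leaf stage; upland plantings received compound either on sown seed or on 1- to 4-leaf seedlings. All were kept 13–15 days in a greenhouse and scored visually, 0–100, relative to untreated plants.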

[4] = tested on: wild oat; experiment: Test B postemergence herbicide test; assay type: in vivo, Avena fatua; details: postemergence, visual rating, scale 0 (no effect) to 100 (complete control)
How it was run: (§3)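 After treating 2-leaf paddy plants or 2–18 cm postemergence plants (1 to 4 leaves) with formulated chemical, researchers kept them in a greenhouse for 13–15 days. Effects were judged visually versus controls: 0 indicates none, 100 total control.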

[5] = tested on: Surinam grass; experiment: Test B pre-/postemergence herbicide test; assay type: in vivo, Urochloa decumbens; details: for Surinam Grass plant response rating: postemergence, visual rating, scale 0 (no effect) to 100 (complete control)
How it was run: as §1

[6] = tested on: corn; experiment: Test B pre-/postemergence herbicide test; assay type: in vivo, Zea mays; details: for Corn plant response rating: postemergence, visual rating, scale 0 (no effect) to 100 (complete control)
How it was run: as §1

[7] = tested on: small flower umbrella sedge; experiment: Test B flooded paddy test; assay type: in vivo, Cyperus difformis; details: 1000 g ai/ha, visual rating, scale 0 to 100 (0 no effect, 100 complete control), 13 to 15 days
How it was run: as §3

[8] = tested on: rice; experiment: Test B pre-/postemergence herbicide test; assay type: in vivo, Oryza sativa; details: preemergence
How it was run: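 Plants compared with untreated controls 13–15 days post-treatment and given a visual 0–100 injury score. Applications: preemergence to seeds; postemergence at 1- to 4-leaf (2–18 cm); paddy species flooded, 2-leaf stage. Vehicle non-phytotoxic, surfactant included.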

[9] = tested on: rice; experiment: Test B flooded paddy test; assay type: in vivo, Oryza sativa; details: 1000 g ai/ha, visual rating, scale 0 to 100 (0 no effect, 100 complete control), 13 to 15 days
How it was run: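 Each value is a visual 0–100 response rating taken against controls 13 to 15 days after treatment in the greenhouse. Plants received formulated chemical postemergence at the 1- to 4-leaf stage or, in flooded paddy, at the 2-leaf stage.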

[10] = tested on: large crabgrass; experiment: Test B pre-/postemergence herbicide test; assay type: in vivo, Digitaria sanguinalis; details: for Crabgrass, Large plant response rating: postemergence, visual rating, scale 0 (no effect) to 100 (complete control)
How it was run: as §1

[11] = tested on: blackgrass; experiment: Test B postemergence herbicide test; assay type: in vivo, Alopecurus myosuroides; details: postemergence, visual rating, scale 0 (no effect) to 100 (complete control)
How it was run: as §3

[12] = tested on: rice; experiment: Test C flooded paddy test; assay type: in vivo, Oryza sativa
How it was run: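 Postemergence sprays applied to plants 2 to 18 cm tall (1- to 4-leaf stage); paddy species grown to 2-leaf stage under flooding. After 12 to 14 days in greenhouse, visual rating versus untreated controls on 0–100 scale (0 no effect, 100 complete control).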

[13] = tested on: cocklebur; experiment: Test B pre-/postemergence herbicide test; assay type: in vivo, Xanthium strumarium; details: for Cocklebur plant response rating: postemergence, visual rating, scale 0 (no effect) to 100 (complete control)
How it was run: as §2

[14] = tested on: barnyardgrass; experiment: Test B flooded paddy test; assay type: in vivo, Echinochloa crus-galli; details: 1000 g ai/ha, visual rating, scale 0 to 100 (0 no effect, 100 complete control), 13 to 15 days
How it was run: as §3

[15] = tested on: barnyardgrass; experiment: Test B pre-/postemergence herbicide test; assay type: in vivo, Echinochloa crus-galli; details: for Barnyardgrass plant response rating: postemergence, visual rating, scale 0 (no effect) to 100 (complete control)
How it was run: as §2

[16] = tested on: ducksalad; experiment: Test B flooded paddy test; assay type: in vivo, Heteranthera limosa; details: 1000 g ai/ha, visual rating, scale 0 to 100 (0 no effect, 100 complete control), 13 to 15 days
How it was run: as §3

[17] = tested on: giant foxtail; experiment: Test B pre-/postemergence herbicide test; assay type: in vivo, Setaria faberi; details: for Foxtail, Giant plant response rating: postemergence, visual rating, scale 0 (no effect) to 100 (complete control)
How it was run: as §1

[18] = tested on: barnyardgrass; experiment: Test C flooded paddy test; assay type: in vivo, Echinochloa crus-galli
How it was run: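 Weeds and wheat were sprayed after emergence, at a height of 2 to 18 cm (1–4 leaves), and paddy barnyardgrass was flooded and treated at two leaves. Assessment took place 12–14 days later in the greenhouse on a 0-to-100 visual control scale. A dash means no result was obtained.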

[19] = tested on: pigweed; experiment: Test B pre-/postemergence herbicide test; assay type: in vivo, Amaranthus retroflexus; details: for Pigweed plant response rating: postemergence, visual rating, scale 0 (no effect) to 100 (complete control)
How it was run: as §1

[20] = tested on: wheat; experiment: Test B postemergence herbicide test; assay type: in vivo, Triticum aestivum; parameters: key to Wheat plant response rating: 0 = no effect, 100 = complete control; details: postemergence, visual rating, scale 0 (no effect) to 100 (complete control)
How it was run: as §3

[21] = tested on: lambsquarters; experiment: Test B pre-/postemergence herbicide test; assay type: in vivo, Chenopodium album
How it was run: as §1

[22] = tested on: smallflower umbrella sedge; experiment: Test C flooded paddy test; assay type: in vivo, Cyperus difformis
[23] = 62 g ai/ha, scale 0 to 100 (0 no effect, 100 complete control)
[24] = 125 g ai/ha, scale 0 to 100 (0 no effect, 100 complete control)
[25] = 250 g ai/ha, scale of 0 to 100, 0 is no effect, 100 is complete control
[26] = 500 g ai/ha, visual rating after 12 to 14 days, scale 0 to 100 (0 no effect, 100 complete control)
[27] = 125 g ai/ha, 0 = no effect, 100 = complete control, preemergence
[28] = 500 g ai/ha, visual rating 0-100, 0 no effect, 100 complete control, preemergence

CCc1nn(C(C)(C)C)cc1C(=O)Nc1cc(C(=O)NC)ccc1F [Compound 194]
Ducksalad plant response rating [1, 23]: 0 | Ducksalad plant response rating [1, 24]: 0 | Ducksalad plant response rating [1, 25]: 0 | Plant response rating, Ducksalad [1, 26]: 40 | Velvetleaf plant response rating (0 to 100 scale) [2, 27]: 20 | Plant response rating, Velvetleaf [2, 28]: 60 | Velvetleaf plant response rating ([2]; 125 g ai/ha): 10 | Velvetleaf plant response rating ([2]; 500 g ai/ha): 10 | Morningglory plant response rating (0 to 100 scale) [3, 27]: 20 | Plant response rating, Morningglory [3, 28]: 50 | Morningglory plant response rating ([3]; 125 g ai/ha): 10 | Morningglory plant response rating ([3]; 500 g ai/ha): 10 | Oat, Wild plant response rating ([4]; 125 g ai/ha): 0 | Oat, Wild plant response rating ([4]; 500 g ai/ha): 0 | Surinam Grass plant response rating (0 to 100 scale) [5, 27]: 0 | Plant response rating, Surinam Grass [5, 28]: 60 | Surinam Grass plant response rating ([5]; 125 g ai/ha): 10 | Surinam Grass plant response rating ([5]; 500 g ai/ha): 10 | Corn plant response rating (0 to 100 scale) [6, 27]: 0 | Plant response rating, Corn [6, 28]: 50 | Corn plant response rating ([6]; 125 g ai/ha): 0 | Corn plant response rating ([6]; 500 g ai/ha): 0 | Sedge, Umbrella plant response rating [7]: 80 | Rice plant response rating (0 to 100 scale) ([8]; 125 g ai/ha, 0 = no effect, 100 = complete control): 0 | Plant response rating, Rice ([8]; 500 g ai/ha, visual rating 0-100, 0 no effect, 100 complete control): 70 | Rice plant response rating [9]: 60 | Crabgrass, Large plant response rating (0 to 100 scale) [10, 27]: 100 | Plant response rating, Crabgrass, Large [10, 28]: 100 | Crabgrass, Large plant response rating ([10]; 125 g ai/ha): 10 | Crabgrass, Large plant response rating ([10]; 500 g ai/ha): 10 | Blackgrass plant response rating ([11]; 125 g ai/ha): 0 | Blackgrass plant response rating ([11]; 500 g ai/ha): 0 | Rice plant response rating [12, 23]: 0 | Rice plant response rating [12, 24]: 25 | Rice plant response rating [12, 25]: 25 | Plant response rating, Rice [12, 26]: 45 | Cocklebur plant response rating (0 to 100 scale) [13, 27]: 0 | Plant response rating, Cocklebur [13, 28]: 20 | Cocklebur plant response rating ([13]; 125 g ai/ha): 10 | Cocklebur plant response rating ([13]; 500 g ai/ha): 10 | Barnyardgrass plant response rating [14]: 50 | Barnyardgrass plant response rating (0 to 100 scale) [15, 27]: 0 | Plant response rating, Barnyardgrass [15, 28]: 90 | Barnyardgrass plant response rating ([15]; 125 g ai/ha): 0 | Barnyardgrass plant response rating ([15]; 500 g ai/ha): 10 | Ducksalad plant response rating [16]: 90 | Foxtail, Giant plant response rating (0 to 100 scale) [17, 27]: 10 | Plant response rating, Foxtail, Giant [17, 28]: 80 | Foxtail, Giant plant response rating ([17]; 125 g ai/ha): 0 | Foxtail, Giant plant response rating ([17]; 500 g ai/ha): 0 | Barnyardgrass plant response rating [18, 23]: 0 | Barnyardgrass plant response rating [18, 24]: 0 | Barnyardgrass plant response rating [18, 25]: 0 | Plant response rating, Barnyardgrass [18, 26]: 25 | Pigweed plant response rating (0 to 100 scale) [19, 27]: 0 | Plant response rating, Pigweed [19, 28]: 100 | Pigweed plant response rating ([19]; 125 g ai/ha): 20 | Pigweed plant response rating ([19]; 500 g ai/ha): 30 | Wheat plant response rating ([20]; 125 g ai/ha): 0 | Wheat plant response rating ([20]; 500 g ai/ha): 0 | Lambsquarters plant response rating (0 to 100 scale) [21, 27]: 30 | Lambsquarters plant response rating ([21]; postemergence, 500 g ai/ha, visual rating, scale 0 (no effect) to 100 (complete control)): 30 | Sedge, Umbrella plant response rating [22, 23]: 0 | Sedge, Umbrella plant response rating [22, 24]: 0 | Sedge, Umbrella plant response rating [22, 25]: 35 | Plant response rating, Sedge, Umbrella [22, 26]: 75
